Measurements taken from patent publication US20170049100A1 (priority 2014, published 2017).
In brackets after ≈: the same amount, converted by molar mass. Like-named read-outs stand apart in the source and are kept apart here.

Legend:
Phytophthora infestans [1] = experiment: microbe, parasite or virus in culture; assay type: cell-based; conditions: for EC50: Phytophthora infestans, 120 h
[2] = cited from earlier work
Phytophthora infestans [3] = assay type: in vivo; conditions: preventive; 3 and 6 I/ha; after incubating for 5 days
Phytophthora infestans [4] = assay type: in vivo; conditions: applied at the same time as Phytophthora infestans; 5 or 7 days; 0.5-1-3-6 L/ha

CCCCC(CC)CO (centres unmarked) [2-ethyl-hexanol]
Effectiveness of 2-ethyl-hexanol (% of control) (Phytophthora infestans [1]; 0.000512 μg 2-ethyl-hexanol/mL): 16.1 % of control
Effectiveness of 2-ethyl-hexanol (% of control) (Phytophthora infestans [1]; 0.00256 μg 2-ethyl-hexanol/mL): 42.3 % of control
Effectiveness of 2-ethyl-hexanol (% of control) (Phytophthora infestans [1]; 0.0128 μg 2-ethyl-hexanol/mL): 60.1 % of control
Effectiveness of 2-ethyl-hexanol (% of control) (Phytophthora infestans [1]; 0.064 μg 2-ethyl-hexanol/mL): 71.7 % of control
Effectiveness of 2-ethyl-hexanol (% of control) (Phytophthora infestans [1]; 0.32 μg 2-ethyl-hexanol/mL): 79.8 % of control
Effectiveness of 2-ethyl-hexanol (% of control) (Phytophthora infestans [1]; 1.6 μg 2-ethyl-hexanol/mL): 82.2 % of control
Effectiveness of 2-ethyl-hexanol (% of control) (Phytophthora infestans [1]; 8 μg 2-ethyl-hexanol/mL): 84.6 % of control
EC50 (Phytophthora infestans [1]): 6.8 ng/mL (≈ 0.0522 µM)
biodegradable ([2]; in 5 days): 100%

CCCCCCCCO [octanol, octan-1-ol]
Effectiveness of octanol (% of control) (Phytophthora infestans [1]; 0.000512 μg octanol/mL): 23.6 % of control
Effectiveness of octanol (% of control) (Phytophthora infestans [1]; 0.00256 μg octanol/mL): 49.4 % of control
Effectiveness of octanol (% of control) (Phytophthora infestans [1]; 0.0128 μg octanol/mL): 72.2 % of control
Effectiveness of octanol (% of control) (Phytophthora infestans [1]; 0.064 μg octanol/mL): 84.8 % of control
Effectiveness of octanol (% of control) (Phytophthora infestans [1]; 0.32 μg octanol/mL): 92.5 % of control
Effectiveness of octanol (% of control) (Phytophthora infestans [1]; 1.6 μg octanol/mL): 93.3 % of control
Effectiveness of octanol (% of control) (Phytophthora infestans [1]; 8 μg octanol/mL): 94.0 % of control
EC50 (Phytophthora infestans [1]): 2.7 ng/mL (≈ 0.0207 µM)
intensity of the infection of the potato leaves caused by Phytophthora infestans (Phytophthora infestans [3]): greatly reduces
development of the pathogen on the surface of potato leaves (Phytophthora infestans [4]): completely inhibits
biodegradable ([2]; in 30 days): more than 70%
